pIC50: −log10 of the molar value.
How the values were obtained:
[1] = target: rat brain cortical membranes ([35S]-TBPS binding, GABA receptor complex); test: Steroid inhibition of [35S]-TBPS binding; details: 3 nM [35S]-TBPS, in the presence of 5 μM GABA
Protocol: TBPS binding assays using rat brain cortical membranes in the presence of 5 μM GABA has been described (Gee et al, J. Pharmacol. Exp. Ther. 1987, 241, 346-353; Hawkinson et al, Mol. Pharmacol. 1994, 46, 977-985; Lewin, A. H et al., Mol. Pharmacol. 1989, 35, 189-194).
Briefly, cortices are rapidly removed following decapitation of carbon dioxide-anesthetized Sprague-Dawley rats (200-250 g). The cortices are homogenized in 10 volumes of ice-cold 0.32 M sucrose using a glass/teflon homogenizer and centrifuged at 1500×g for 10 min at 4° C. The resultant supernatants are centrifuged at 10,000×g for 20 min at 4° C. to obtain the P2 pellets. The P2 pellets are resuspended in 200 mM NaCl/50 mM Na-K phosphate pH 7.4 buffer and centrifuged at 10,000×g for 10 min at 4° C. This washing procedure is repeated twice and the pellets are resuspended in 10 volumes of buffer. Aliquots (100 μL) of the membrane suspensions are incubated with 3 nM [^35S]-TBPS and 5 μL aliquots of test drug dissolved in dimethyl sulfoxide (DMSO) (final 0.5%) in the presence of 5 μM GABA. The incubation is brought to a final volume of 1.0 mL with buffer. […] Filter bound radioactivity is measured by liquid scintillation spectrometry. […]

α1β2γ2 GABAA receptor = α1β2γ2 GABAA receptor (Homo sapiens (Human), UniProt P14867+P47870); test: Patch clamp electrophysiology of recombinant α1β2γ2 GABAA receptors in LTK cells; format: cell-based; details: LTK, 10 μM compound, Qpatch, Ltk cells, GABA EC20 2 μM; read-out: α1β2γ2 GABA Qpatch in Ltk (Efficacy at 10 μm)
Method in brief: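 Whole-cell voltage clamp at −80 mV, room temperature, in LTK cells stably expressing α1β2γ2 or CHO cells transiently expressing α4β3δ, manual or QPatch. Test article (0.01–10 μM, increasing, 30 s preincubation) then 2 μM GABA (EC20) for 2 s; potentiation = peak current with compound relative to GABA alone ×100.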

α4β3δ GABAA receptor = α4β3δ GABAA receptor (Homo sapiens (Human), UniProt P28472+P48169); test: Patch clamp electrophysiology of recombinant α4β3δ GABAA receptors in CHO cells; format: cell-based; details: 10 μM compound, manual patch, GABA EC20 2 μM, read-out: α4β3δ GABA Manual Patch in CHO (Efficacy at 10 μM)
Protocol: Cellular electrophysiology is used to measure the pharmacological properties of our GABAA receptor modulators in heterologous cell systems. Each compound is tested for its ability to affect GABA mediated currents at a submaximal agonist dose (GABA EC20=2 μM). LTK cells are stably transfected with the α1β2γ2 subunits of the GABA receptor and CHO cells are transiently transfected with the α4β3δ subunits via the Lipofecatamine method. Cells were passaged at a confluence of about 50-80% and then seeded onto 35 mm sterile culture dishes containing 2 ml culture complete medium without antibiotics or antimycotics. Confluent clusters of cells are electrically coupled (Pritchett et al., 1988). Because responses in distant cells are not adequately voltage clamped and because of uncertainties about the extent of coupling (Verdoorn et al., 1990), cells were cultivated at a density that enables the recording of single cells (without visible connections to other cells).
Whole cell currents were measured with HEKA EPC-10 amplifiers using PatchMaster software or by using the high throughput QPatch platform (Sophion). Bath solution for all experiments contained (in mM): NaCl 137 mM, KCl 4 mM, CaCl2 1.8 mM, MgCl2 1 mM, HEPES 10 mM, D-Glucose 10 mM, pH (NaOH) 7.4. In some cases 0.005% cremophor was also added. Intracellular (pipette) solution contained: KCl 130 mM, MgCl2 1 mM, Mg-ATP 5 mM, HEPES 10 mM, EGTA 5 mM, pH 7.2. During experiments, cells and solutions were maintained at room temperature (19° C.-30° C.). For manual patch clamp recordings, cell culture dishes were placed on the dish holder of the microscope and continuously perfused (1 ml/min) with bath solution. After formation of a Gigaohm seal between the patch electrodes and the cell (pipette resistance range: 2.5 MΩ-6.0 MΩ; seal resistance range: >1 GΩ) the cell membrane across the pipette tip was ruptured to assure electrical access to the cell interior (whole-cell patch-configuration). For experiments using the QPatch system, cells were transferred as suspension to the QPatch system in the bath solution and automated whole cell recordings were performed.
Cells were voltage clamped at a holding potential of −80 mV. For the analysis of test articles, GABA receptors were stimulated by 2 μM GABA after sequential pre-incubation of increasing concentrations of the test article. Pre-incubation duration was 30 s and the duration of the GABA stimulus was 2 s. Test articles were dissolved in DMSO to form stock solutions (10 mM). Test articles were diluted to 0.01, 0.1, 1, and 10 μM in bath solution. All concentrations of test articles were tested on each cell. The relative percentage potentiation was defined as the peak amplitude in response to GABA EC20 in the presence of the test article divided by the peak amplitude in response to GABA EC20 alone, multiplied by 100.

## C[C@@]1(O)CC[C@H]2[C@H](CC[C@@H]3[C@@H]2CC[C@]2(C)[C@@H](C(=O)Cn4nc5cc(F)c(F)cc5n4)CC[C@@H]32)C1 [SA-53]
[1]
  pIC50: 7.30 to 8.00

## C[C@]12CC[C@H]3[C@@H](CC[C@H]4C[C@@](O)(CF)CC[C@@H]43)[C@@H]1CC[C@@H]2C(=O)Cn1nc2ccncc2n1 [SB-15]
α1β2γ2 GABAA receptor
  activity at 10 µM: 100 to 500%
α4β3δ GABAA receptor
  activity at 10 µM: 100 to 500%

## COC[C@@]1(O)CC[C@H]2[C@@H](CC[C@@H]3[C@@H]2CC[C@]2(C)[C@@H](C(=O)Cn4cc5ccncc5n4)CC[C@@H]32)C1 [SB-45]
α1β2γ2 GABAA receptor
  activity at 10 µM: 100 to 500%
α4β3δ GABAA receptor
  activity at 10 µM: 100 to 500%

## COC[C@@]1(O)CC[C@H]2[C@@H](CC[C@@H]3[C@@H]2CC[C@]2(C)[C@@H](C(=O)Cn4nc5ccccc5n4)CC[C@@H]32)C1 [SB-50]
α1β2γ2 GABAA receptor
  activity at 10 µM: 10 to 100%
α4β3δ GABAA receptor
  activity at 10 µM: 100 to 500%

## C[C@]12CC[C@H]3[C@@H](CC[C@H]4C[C@@](O)(CF)CC[C@@H]43)[C@@H]1CC[C@@H]2C(=O)Cn1cc2ccc(F)cc2n1 [SG-20]
α1β2γ2 GABAA receptor
  activity at 10 µM: 100 to 500%
α4β3δ GABAA receptor
  activity at 10 µM: 100 to 500%

From patent US11261211B2, “19-NOR neuroactive steroids and methods of use thereof” (Sage Therapeutics, Inc., priority 2013, dated 2022)
